From patent US9175003B2, “Substituted azoanthracene derivatives and intermediates for preparation thereof” (TransTech Pharma, LLC, priority 2009, dated 2015)

Each compound was assayed against human GLP-1 receptor (Homo sapiens (Human), UniProt P43220). Details: read-out: Mean EC50; cAMP, HTRF detection, 30 min at 37° C., HEK-293 cells expressing cloned human GLP-1 receptor.
Chain of human GLP-1 receptor (P43220 24-463): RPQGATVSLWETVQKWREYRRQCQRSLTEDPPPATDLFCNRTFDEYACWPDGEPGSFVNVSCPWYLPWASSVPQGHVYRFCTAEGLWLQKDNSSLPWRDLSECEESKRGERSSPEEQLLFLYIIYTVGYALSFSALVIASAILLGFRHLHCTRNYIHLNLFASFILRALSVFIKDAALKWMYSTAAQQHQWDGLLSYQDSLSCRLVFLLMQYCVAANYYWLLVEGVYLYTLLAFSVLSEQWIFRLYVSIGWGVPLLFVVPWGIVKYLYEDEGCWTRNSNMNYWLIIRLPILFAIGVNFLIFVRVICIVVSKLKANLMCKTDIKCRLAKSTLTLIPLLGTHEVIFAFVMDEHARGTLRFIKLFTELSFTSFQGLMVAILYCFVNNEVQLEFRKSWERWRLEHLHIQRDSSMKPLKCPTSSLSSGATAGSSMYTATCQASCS

SMILES | EC50 [nM]
N#Cc1ccc(-c2ccc(C[C@H](NC(=O)[C@@H]3Cc4cc5c(cc4CN3C(=O)c3ccoc3)OC(c3ccc(OCc4ccc(Cl)c(Cl)c4)cc3)CO5)C(=O)O)cc2)cc1 (stereo in doubt) [Example 27, (S)-3-(4′-Cyano-biphenyl-4-yl)-2-{[(S)-3-[4-(3,4-dichloro-benzyloxy)-phenyl]-7-(furan-3-carbonyl)-2,3,6,7,8,9-hexahydro-[1,4]dioxino[2,3-g]isoquinoline-8-carbonyl]-amino}-propionic acid] | 843
CC(=O)N1CC(c2ccc(OCc3ccc(Cl)c(Cl)c3)cc2)Oc2cc3c(cc21)C[C@@H](C(=O)N[C@@H](Cc1ccc(-c2ccc(C#N)cc2)cc1)C(=O)O)N(C(=O)c1ccccc1)C3 (stereo in doubt) [Example 53, (S)-2-({(S)-1-Acetyl-6-benzoyl-3-[4-(3,4-dichloro-benzyloxy)-phenyl]-2,3,5,6,7,8-hexahydro-1H-4-oxa-1,6-diaza-anthracene-7-carbonyl}-amino)-3-(4′-cyano-biphenyl-4-yl)-propionic acid] | 380
Cc1nc(NC(=O)C2CCC2)sc1S(=O)(=O)N1Cc2cc3c(cc2C[C@H]1C(=O)N[C@@H](Cc1ccc(-c2ccc(C#N)cc2)cc1)C(=O)O)OCC(c1ccc(OCc2ccc(Cl)c(Cl)c2)cc1)O3 (stereo in doubt) [Example 55, (S)-3-(4′-Cyano-biphenyl-4-yl)-2-({(S)-7-[2-(cyclobutanecarbonyl-amino)-4-methyl-thiazole-5-sulfonyl]-3-[4-(3,4-dichloro-benzyloxy)-phenyl]-2,3,6,7,8,9-hexahydro[1,4]dioxino[2,3-g]isoquinoline-8-carbonyl}-amino)-propionic acid] | 360
Cc1sc(N)nc1S(=O)(=O)N1Cc2cc3c(cc2C[C@H]1C(=O)N[C@@H](Cc1ccc(-c2ccc(C#N)cc2)cc1)C(=O)O)OCC(c1ccc(OCc2ccc(Cl)c(Cl)c2)cc1)O3 (stereo in doubt) [Example 95, (S)-2-({(S)-7-(2-Amino-5-methyl-thiazole-4-sulfonyl)-3-[4-(3,4-dichloro-benzyloxy)-phenyl]-2,3,6,7,8,9-hexahydro-[1,4]dioxino[2,3-g]isoquinoline-8-carbonyl}-amino)-3-(4′-cyano-biphenyl-4-yl)-propionic acid] | 462
Cc1nc(NCC2CCC2)sc1S(=O)(=O)N1Cc2cc3c(cc2C[C@H]1C(=O)N[C@@H](Cc1ccc(-c2ccc(C#N)cc2)cc1)C(=O)O)OCC(c1ccc(OCc2ccc(Cl)c(Cl)c2)cc1)O3 (stereo in doubt) [Example 105, (S)-3-(4′-Cyano-biphenyl-4-yl)-2-({(S)-7-[2-(cyclobutylmethyl-amino)-4-methyl-thiazole-5-sulfonyl]-3-[4-(3,4-dichloro-benzyloxy)-phenyl]-2,3,6,7,8,9-hexahydro-[1,4]dioxino[2,3-g]isoquinoline-8-carbonyl}-amino)-propionic acid] | 321
Cc1nc(NCCC(C)C)sc1S(=O)(=O)N1Cc2cc3c(cc2C[C@H]1C(=O)N[C@@H](Cc1ccc(-c2ccc(C#N)cc2)cc1)C(=O)O)OCC(c1ccc(OCc2ccc(Cl)c(Cl)c2)cc1)O3 (stereo in doubt) [Example 110, (S)-3-(4′-Cyano-biphenyl-4-yl)-2-({(S)-3-[4-(3,4-dichloro-benzyloxy)-phenyl]-7-[4-methyl-2-(3-methyl-butylamino)-thiazole-5-sulfonyl]-2,3,6,7,8,9-hexahydro-[1,4]dioxino[2,3-g]isoquinoline-8-carbonyl}-amino)-propionic acid] | 356

The next compounds have a lower EC50 than those just listed; values first:

EC50 [nM] | SMILES
310 | Cn1ccnc1CN1Cc2cc3c(cc2C[C@H]1C(=O)N[C@@H](Cc1ccc(-c2ccc(C#N)cc2)cc1)C(=O)O)OCC(c1ccc(OCc2ccc(Cl)c(Cl)c2)cc1)O3 (stereo in doubt) [Example 40, (S)-3-(4′-Cyano-biphenyl-4-yl)-2-{[(S)-3-[4-(3,4-dichloro-benzyloxy)-phenyl]-7-(1-methyl-1H-imidazol-2-ylmethyl)-2,3,6,7,8,9-hexahydro-[1,4]dioxino[2,3-g]isoquinoline-8-carbonyl]-amino}-propionic acid]
298 | CCCCNc1nc(C)c(S(=O)(=O)N2Cc3cc4c(cc3C[C@H]2C(=O)N[C@@H](Cc2ccc(-c3ccc(C#N)cc3)cc2)C(=O)O)OCC(c2ccc(OCc3ccc(Cl)c(Cl)c3)cc2)O4)s1 (stereo in doubt) [Example 109, (S)-2-({(S)-7-(2-Butylamino-4-methyl-thiazole-5-sulfonyl)-3-[4-(3,4-dichloro-benzyloxy)-phenyl]-2,3,6,7,8,9-hexahydro-[1,4]dioxino[2,3-g]isoquinoline-8-carbonyl}-amino)-3-(4′-cyano-biphenyl-4-yl)-propionic acid]
277 | CCNc1nc(C)c(S(=O)(=O)N2Cc3cc4c(cc3C[C@H]2C(=O)N[C@@H](Cc2ccc(-c3ccc(C#N)cc3)cc2)C(=O)O)OCC(c2ccc(OCc3ccc(C)c(Cl)c3)cc2)O4)s1 (stereo in doubt) [Example 63, (S)-2-{[(S)-3-[4-(3-Chloro-4-methyl-benzyloxy)-phenyl]-7-(2-ethylamino-4-methyl-thiazole-5-sulfonyl)-2,3,6,7,8,9-hexahydro-[1,4]dioxino[2,3-g]isoquinoline-8-carbonyl]-amino}-3-(4′-cyano-biphenyl-4-yl)-propionic acid]
259 | Cc1nc(NC(=O)C(F)(F)F)sc1S(=O)(=O)N1Cc2cc3c(cc2C[C@H]1C(=O)N[C@@H](Cc1ccc(-c2ccc(C#N)cc2)cc1)C(=O)O)OCC(c1ccc(OCc2ccc(Cl)c(Cl)c2)cc1)O3 (stereo in doubt) [Example 70, (S)-3-(4′-Cyano-biphenyl-4-yl)-2-({(S)-3-[4-(3,4-dichloro-benzyloxy)-phenyl]-7-[4-methyl-2-(2,2,2-trifluoro-acetylamino)-thiazole-5-sulfonyl]-2,3,6,7,8,9-hexahydro-[1,4]dioxino[2,3-g]isoquinoline-8-carbonyl}-amino)-propionic acid]
185 | CCNc1nc(S(=O)(=O)N2Cc3cc4c(cc3C[C@H]2C(=O)N[C@@H](Cc2ccc(-c3ccc(C#N)cc3)cc2)C(=O)O)OCC(c2ccc(OCc3ccc(Cl)c(Cl)c3)cc2)O4)c(C)s1 (stereo in doubt) [Example 96, (S)-3-(4′-Cyano-biphenyl-4-yl)-2-{[(S)-3-[4-(3,4-dichloro-benzyloxy)-phenyl]-7-(2-ethylamino-5-methyl-thiazole-4-sulfonyl)-2,3,6,7,8,9-hexahydro-[1,4]dioxino[2,3-g]isoquinoline-8-carbonyl]-amino}-propionic acid]
44 | CC(=O)Nc1ccc(S(=O)(=O)N2Cc3cc4c(cc3C[C@H]2C(=O)N[C@@H](Cc2ccc(-c3ccc(C#N)cc3)cc2)C(=O)O)OCC(c2ccc(OCc3ccc(Cl)c(Cl)c3)cc2)O4)c(C)c1 (stereo in doubt) [Example 111, (S)-2-({(S)-7-(4-Acetylamino-2-methyl-benzenesulfonyl)-3-[4-(3,4-dichloro-benzyloxy)-phenyl]-2,3,6,7,8,9-hexahydro-[1,4]dioxino[2,3-g]isoquinoline-8-carbonyl}-amino)-3-(4′-cyano-biphenyl-4-yl)-propionic acid]
